We go through seven molecules from US8124807B2, “Sulfonyl-substituted 6-membered ring derivative” (MSD K.K., priority 2007, dated 2012).

Structures are written as SMILES.

The assay deals with T1, human LCE (Homo sapiens, UniProt Q9H5J4).
T1 sequence (Q9H5J4 1-265): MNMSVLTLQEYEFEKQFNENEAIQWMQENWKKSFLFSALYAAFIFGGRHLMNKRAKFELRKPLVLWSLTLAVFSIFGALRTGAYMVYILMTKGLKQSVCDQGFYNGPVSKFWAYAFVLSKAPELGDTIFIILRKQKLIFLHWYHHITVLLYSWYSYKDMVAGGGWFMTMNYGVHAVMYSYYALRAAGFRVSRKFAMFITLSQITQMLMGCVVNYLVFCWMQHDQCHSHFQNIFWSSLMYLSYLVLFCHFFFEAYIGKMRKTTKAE
The experiment in a line: LCE enzyme activity-inhibitory test. Conditions: palmitoyl CoA and [14C]-malonyl CoA substrates, pH 6.5, 37° C., 90 minutes. It counts as biochemical. As for the experimental part:
A test compound was dissolved in dimethyl sulfoxide (DMSO to be 10 mM), and then diluted with DMSO to prepare a 1000-fold concentrated solution of the test concentration. An improved Moon et al's method (J. Biol. Chem., Vol. 276, pp. 45358-45366, 2001) was employed for the LCE enzyme activity-inhibitor test. Concretely, the diluted compound was applied to a 96-well assay plate (Corning, 96-well assay block) in an amount of 1.0 μL/well; 50 μL of a phosphate buffer solution (100 mM potassium phosphate buffer, pH 6.5), and 25 μL of a substrate solution (100 mM potassium phosphate buffer (pH 6.5), 4.0 μM rotenone, 80 μM fatty acid-free bovine serum albumin, 160 μM palmitoyl CoA, 80 μM malonyl CoA, 3.5 μM [^14C]-malonyl CoA (1.92 GBq/mmol, by Amersham)) were added to each well; 25 μL of an enzyme solution (100 mM potassium phosphate buffer (pH 6.5), 100 μg/mL human LCE) was added thereto; the top of the plate was airtightly sealed up; and this was incubated with gently shaking and stirring at 37° C. for 90 minutes. Next, 100 μL of 5 N hydrochloric acid was added to each well, and the assay plate was stirred at room temperature for 5 minutes to stop the enzyme reaction with hydrolyzing the acyl CoA. Next, the enzyme reaction solution in each well was adsorbed by each well of a 96-well GF/C filter plate (Perkin Elmer Unifilter 96 GF/C); the individual wells were washed with water to remove the non-adsorbed malonyl CoA; and the GF/C filter plate was dried at 50° C. for 60 minutes. Next, 30 μL of a scintillator (Perkin Elmer Microscinti 0) was added to each well; then the top of the plate was sealed up; and the fixed [^14C] radioactivity was measured with a microplate scintillation counter (Perkin Elmer TopCount) to be the enzyme activity. The human LCE enzyme-inhibitory activity of the test compound was calculated, based on the radioactivity of the DMSO-added well with no test compound therein as a control.
`CC(C)Oc1ccc(NC(=O)[C@@H]2CCC[C@@H](S(=O)(=O)c3ccccn3)C2)nc1` (racemic) [Example 8, (1R*,3R*)-N-(5-isopropoxypyridin-2-yl)-3-(pyridin-2-ylsulfonyl)cyclohexanecarboxamide] showed an IC50 of 43 nM.
Take `CC(C)Oc1ccc(NC(=O)[C@@H]2CCC[C@@H](S(=O)(=O)c3ccncc3)C2)nc1` (racemic) [Example 9, (1R*,3R*)-N-(5-isopropoxypyridin-2-yl)-3-(pyridin-4-ylsulfonyl)cyclohexanecarboxamide]: inhibition was half-maximal at 131 nM (IC50).
Then `CC(C)Oc1ccc(NC(=O)[C@@H]2CCC[C@@H](S(=O)(=O)c3ccccn3)C2)cc1` (racemic) [Example 2, (1R*,3R*)-N-(4-isopropoxyphenyl)-3-(pyridin-2-ylsulfonyl)cyclohexanecarboxamide], with 233 nM; and `CC(C)Oc1ccc(NC(=O)[C@@H]2CCC[C@@H](S(=O)(=O)c3cnccn3)C2)nc1` (racemic) [Example 13, (1R*,3R*)-N-(5-isopropoxypyridin-2-yl)-3-(pyrazin-2-ylsulfonyl)cyclohexanecarboxamide], with 130 nM.
In the case of `CC(C)Oc1ccc(NC(=O)[C@@H]2CCC[C@@H](S(=O)(=O)c3ccccc3)C2)nc1` (racemic) [Example 7, (1R*,3R*)-N-(5-isopropoxypyridin-2-yl)-3-(phenylsulfonyl)cyclohexanecarboxamide], 30 nM corresponded to half-maximal inhibition (IC50).
The molecule `CC(C)Oc1ccc(NC(=O)[C@@H]2CCC[C@@H](S(=O)(=O)c3ncccn3)C2)nc1` (racemic) [Example 10, (1R*,3R*)-N-(5-isopropoxypyridin-2-yl)-3-(pyrimidin-2-ylsulfonyl)cyclohexanecarboxamide] gave an IC50 of 26 nM.
Molecule `CC(C)Oc1ccc(NC(=O)[C@@H]2CCC[C@@H](S(=O)(=O)c3nccs3)C2)nc1` (racemic) [Example 11, (1R*,3R*)-N-(5-isopropoxypyridin-2-yl)-3-(1,3-thiazol-2-ylsulfonyl)cyclohexanecarboxamide] showed a 50% inhibitory concentration (IC50) of 32 nM.
